Experimental findings from ChEMBL document CHEMBL1148480, “Structure-activity studies of orexin a and orexin B at the human orexin 1 and orexin 2 receptors led to orexin 2 receptor selective and orexin 1 receptor preferring ligands” (J Med Chem, 2004) are described below.

Residues, ends and D or L forms follow the SMILES beside them.

One assay concerns the target T1, Orexin receptor type 2 (Homo sapiens, UniProt O43614).
T1 sequence (O43614 whole entry): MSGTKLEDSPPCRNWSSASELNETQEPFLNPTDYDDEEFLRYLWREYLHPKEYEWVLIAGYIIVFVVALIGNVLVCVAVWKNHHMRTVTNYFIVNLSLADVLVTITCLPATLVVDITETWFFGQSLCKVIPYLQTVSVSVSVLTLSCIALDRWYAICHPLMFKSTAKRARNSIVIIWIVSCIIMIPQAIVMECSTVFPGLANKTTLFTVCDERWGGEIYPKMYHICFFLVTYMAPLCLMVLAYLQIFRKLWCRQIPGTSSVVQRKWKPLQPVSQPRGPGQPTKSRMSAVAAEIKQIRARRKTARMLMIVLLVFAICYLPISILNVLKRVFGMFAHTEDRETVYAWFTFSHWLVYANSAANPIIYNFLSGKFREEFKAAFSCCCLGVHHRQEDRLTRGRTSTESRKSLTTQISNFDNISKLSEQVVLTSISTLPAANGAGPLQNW
Put plainly: Effective agonist concentration to the human Orexin receptor type 2 was determined using the Xlfit program. It is filed as functional.

The target of assay [1] is T2, Orexin/Hypocretin receptor type 1 (Homo sapiens, UniProt O43613).
T2 sequence (O43613 whole entry): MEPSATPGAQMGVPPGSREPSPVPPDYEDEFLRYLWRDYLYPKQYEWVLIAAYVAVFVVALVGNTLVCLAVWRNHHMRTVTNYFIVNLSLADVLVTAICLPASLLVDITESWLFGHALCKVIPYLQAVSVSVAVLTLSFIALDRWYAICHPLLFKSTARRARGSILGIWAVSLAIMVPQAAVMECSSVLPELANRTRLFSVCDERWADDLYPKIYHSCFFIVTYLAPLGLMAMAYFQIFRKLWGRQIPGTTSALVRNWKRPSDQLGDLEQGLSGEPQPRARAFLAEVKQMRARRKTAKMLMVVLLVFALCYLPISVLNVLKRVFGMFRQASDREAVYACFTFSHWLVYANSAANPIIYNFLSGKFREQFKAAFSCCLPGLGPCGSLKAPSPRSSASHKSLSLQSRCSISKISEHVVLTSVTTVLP
As to the kind of experiment: Effective agonist concentration to human orexin receptor type 1 determined using the Xlfit program. The class given is functional.

With `CC[C@H](C)[C@H](NC(=O)CNC(=O)[C@H](C)NC(=O)[C@H](C)NC(=O)[C@H](Cc1cnc[nH]1)NC(=O)[C@H](CC(N)=O)NC(=O)CNC(=O)[C@H](C)NC(=O)CNC(=O)[C@H](Cc1cnc[nH]1)NC(=O)[C@H](CC(C)C)NC(=O)[C@H](CC(C)C)NC(=O)[C@H](CCC(=O)O)NC(=O)[C@H](Cc1ccc(O)cc1)NC(=O)[C@H](CC(C)C)NC(=O)[C@H](CCCNC(=N)N)NC(=O)[C@H](CSSC[C@H](NC(=O)[C@@H](N)CO)C(=O)N[C@@H](CCCNC(=N)N)C(=O)N[C@@H](CC(C)C)C(=O)N[C@@H](Cc1ccc(O)cc1)C(=O)N[C@@H](CCC(=O)O)C(=O)N[C@@H](CC(C)C)C(=O)N[C@@H](CC(C)C)C(=O)N[C@@H](Cc1cnc[nH]1)C(=O)NCC(=O)N[C@@H](C)C(=O)NCC(=O)N[C@@H](CC(N)=O)C(=O)N[C@@H](Cc1cnc[nH]1)C(=O)N[C@@H](C)C(=O)N[C@@H](C)C(=O)NCC(=O)N[C@H](C(=O)N[C@@H](CC(C)C)C(=O)N[C@H](C(=O)N[C@@H](CC(C)C)C(=O)O)[C@@H](C)O)[C@@H](C)CC)NC(=O)[C@@H](N)CO)C(=O)N[C@@H](CC(C)C)C(=O)N[C@H](C(=O)N[C@@H](CC(C)C)C(=O)O)[C@@H](C)O`, the EC50 – broadly, the concentration needed to bring the measured effect to its halfway point – at Orexin receptor type 2 was 0.24 µM; in assay [1] it was 0.69 µM.

In the case of `CC[C@H](C)[C@H](NC(=O)CNC(=O)[C@H](C)NC(=O)[C@H](C)NC(=O)[C@H](Cc1c[nH]cn1)NC(=O)[C@H](CC(N)=O)NC(=O)CNC(=O)[C@H](C)N)C(=O)N[C@@H](CC(C)C)C(=O)N[C@H](C(=O)N[C@@H](CC(C)C)C(=O)O)[C@@H](C)O` (H-AGNHAAGILTL-OH), the 50% effective concentration (EC50) (at Orexin receptor type 2; in assay [1]) was more than 1000 µM throughout.

Regarding `CC[C@H](C)[C@H](NC(=O)CNC(=O)[C@H](C)NC(=O)[C@H](C)NC(=O)[C@H](Cc1cnc[nH]1)NC(=O)[C@H](CC(N)=O)NC(=O)CNC(=O)[C@H](CO)NC(=O)[C@H](C)NC(=O)[C@H](CCC(N)=O)NC(=O)[C@H](CC(C)C)NC(=O)[C@H](CC(C)C)NC(=O)[C@H](CCCNC(=N)N)NC(=O)[C@H](CCC(N)=O)NC(=O)[C@H](CC(C)C)NC(=O)[C@H](CCCNC(=N)N)NC(=O)CNC(=O)[C@H](CCC(N)=O)NC(=O)[C@H](CC(C)C)NC(=O)[C@H](C)N)C(=O)N[C@@H](CC(C)C)C(=O)N[C@H](C(=O)N[C@@H](CCSC)C(=O)O)[C@@H](C)O` (H-ALQGRLQRLLQASGNHAAGILTM-OH), the EC50 at Orexin receptor type 2 amounted to 0.57 µM; in assay [1], 3.16 µM.

In the case of `CC[C@H](C)[C@H](NC(=O)CNC(=O)[C@H](C)NC(=O)[C@H](C)NC(=O)[C@H](Cc1cnc[nH]1)NC(=O)[C@H](CC(N)=O)NC(=O)CNC(=O)[C@H](CO)NC(=O)[C@H](C)NC(=O)[C@H](CCC(N)=O)NC(=O)[C@H](C)NC(=O)[C@H](CC(C)C)NC(=O)[C@H](CCCNC(=N)N)NC(=O)[C@H](CCC(N)=O)NC(=O)[C@H](CC(C)C)NC(=O)[C@H](CCCNC(=N)N)NC(=O)CNC(=O)[C@H](CCC(N)=O)NC(=O)[C@H](CC(C)C)NC(=O)CN)C(=O)N[C@@H](CC(C)C)C(=O)N[C@H](C(=O)N[C@@H](CCSC)C(=O)O)[C@@H](C)O` (H-GLQGRLQRLAQASGNHAAGILTM-OH), the EC50 was 2.33 µM at Orexin receptor type 2 and more than 1000 µM in assay [1].

As for `CC[C@H](C)[C@H](NC(=O)CNC(=O)[C@H](C)NC(=O)[C@H](C)NC(=O)[C@H](Cc1cnc[nH]1)NC(=O)[C@H](CC(N)=O)NC(=O)CNC(=O)[C@H](CO)NC(=O)[C@H](C)NC(=O)[C@H](C)NC(=O)[C@H](CC(C)C)NC(=O)[C@H](CC(C)C)NC(=O)[C@H](CCCNC(=N)N)NC(=O)[C@H](CCC(N)=O)NC(=O)[C@H](CC(C)C)NC(=O)[C@H](CCCNC(=N)N)NC(=O)CNC(=O)[C@H](CCC(N)=O)NC(=O)[C@H](CC(C)C)NC(=O)CN)C(=O)N[C@@H](CC(C)C)C(=O)N[C@H](C(=O)N[C@@H](CCSC)C(=O)O)[C@@H](C)O` (H-GLQGRLQRLLAASGNHAAGILTM-OH), the 50% effective concentration (EC50) at Orexin receptor type 2 turned out to be 0.19 µM; in assay [1], 1.64 µM.

Regarding `CSCC[C@H](NC(=O)[C@@H](NC(=O)[C@H](CC(C)C)NC(=O)[C@H](C)NC(=O)CNC(=O)[C@H](C)NC(=O)[C@H](C)NC(=O)[C@H](Cc1c[nH]cn1)NC(=O)[C@H](CC(N)=O)NC(=O)CNC(=O)[C@H](CO)NC(=O)[C@H](C)NC(=O)[C@H](CCC(N)=O)NC(=O)[C@H](CC(C)C)NC(=O)[C@H](CC(C)C)NC(=O)[C@H](CCCN=C(N)N)NC(=O)[C@H](CCC(N)=O)NC(=O)[C@H](CC(C)C)NC(=O)[C@H](CCCN=C(N)N)NC(=O)CNC(=O)[C@H](CCC(N)=O)NC(=O)[C@H](CC(C)C)NC(=O)CN)[C@@H](C)O)C(=O)O` (H-GLQGRLQRLLQASGNHAAGALTM-OH), the EC50 (on Orexin receptor type 2; in assay [1]) was more than 1000 µM throughout.

With `CC[C@H](C)[C@H](NC(=O)CNC(=O)[C@H](C)NC(=O)[C@H](C)NC(=O)[C@H](Cc1cnc[nH]1)NC(=O)[C@H](CC(N)=O)NC(=O)CNC(=O)[C@H](CO)NC(=O)[C@H](C)NC(=O)[C@H](CCC(N)=O)NC(=O)[C@H](CC(C)C)NC(=O)[C@H](CC(C)C)NC(=O)[C@H](CCCNC(=N)N)NC(=O)[C@H](CCC(N)=O)NC(=O)[C@H](CC(C)C)NC(=O)[C@H](CCCNC(=N)N)NC(=O)CNC(=O)[C@H](CCC(N)=O)NC(=O)[C@H](CC(C)C)NC(=O)CN)C(=O)N[C@@H](C)C(=O)N[C@H](C(=O)N[C@@H](CCSC)C(=O)O)[C@@H](C)O` (H-GLQGRLQRLLQASGNHAAGIATM-OH), the results for the EC50 (at Orexin receptor type 2; in assay [1]) were 15.6 µM and more than 1000 µM, respectively.

Consider `CC[C@H](C)[C@H](NC(=O)CNC(=O)[C@H](C)NC(=O)[C@H](C)NC(=O)[C@H](Cc1cnc[nH]1)NC(=O)[C@H](CC(N)=O)NC(=O)CNC(=O)[C@H](CO)NC(=O)[C@H](C)NC(=O)[C@H](CCC(N)=O)NC(=O)[C@H](CC(C)C)NC(=O)[C@H](CC(C)C)NC(=O)[C@H](CCCNC(=N)N)NC(=O)[C@H](CCC(N)=O)NC(=O)[C@H](CC(C)C)NC(=O)[C@H](CCCNC(=N)N)NC(=O)CNC(=O)[C@H](CCC(N)=O)NC(=O)[C@H](CC(C)C)NC(=O)CN)C(=O)N[C@@H](CC(C)C)C(=O)N1CCC[C@H]1C(=O)N[C@@H](CCSC)C(=O)O` (H-GLQGRLQRLLQASGNHAAGILPM-OH), for which the EC50 on Orexin receptor type 2 was 2.67 µM; in assay [1], more than 1000 µM.

For `CSCC[C@H](NC(=O)[C@@H](NC(=O)[C@H](CC(C)C)NC(=O)[C@@H]1CCCN1C(=O)CNC(=O)[C@H](C)NC(=O)[C@H](C)NC(=O)[C@H](Cc1cnc[nH]1)NC(=O)[C@H](CC(N)=O)NC(=O)CNC(=O)[C@H](CO)NC(=O)[C@H](C)NC(=O)[C@H](CCC(N)=O)NC(=O)[C@H](CC(C)C)NC(=O)[C@H](CC(C)C)NC(=O)[C@H](CCCNC(=N)N)NC(=O)[C@H](CCC(N)=O)NC(=O)[C@H](CC(C)C)NC(=O)[C@H](CCCNC(=N)N)NC(=O)CNC(=O)[C@H](CCC(N)=O)NC(=O)[C@H](CC(C)C)NC(=O)CN)[C@@H](C)O)C(=O)O` (H-GLQGRLQRLLQASGNHAAGPLTM-OH), the EC50 (on Orexin receptor type 2; in assay [1]) was more than 1000 µM throughout.

As to `CC[C@H](C)[C@H](NC(=O)CNC(=O)[C@@H]1CCCN1C(=O)[C@H](C)NC(=O)[C@H](Cc1cnc[nH]1)NC(=O)[C@H](CC(N)=O)NC(=O)CNC(=O)[C@H](CO)NC(=O)[C@H](C)NC(=O)[C@H](CCC(N)=O)NC(=O)[C@H](CC(C)C)NC(=O)[C@H](CC(C)C)NC(=O)[C@H](CCCNC(=N)N)NC(=O)[C@H](CCC(N)=O)NC(=O)[C@H](CC(C)C)NC(=O)[C@H](CCCNC(=N)N)NC(=O)CNC(=O)[C@H](CCC(N)=O)NC(=O)[C@H](CC(C)C)NC(=O)CN)C(=O)N[C@@H](CC(C)C)C(=O)N[C@H](C(=O)N[C@@H](CCSC)C(=O)O)[C@@H](C)O` (H-GLQGRLQRLLQASGNHAPGILTM-OH), the concentration for a half-maximal effect (EC50) is 3.6 µM on Orexin receptor type 2 and more than 1000 µM in assay [1].

With `CC[C@H](C)[C@H](NC(=O)CNC(=O)[C@H](C)NC(=O)[C@@H]1CCCN1C(=O)[C@H](Cc1cnc[nH]1)NC(=O)[C@H](CC(N)=O)NC(=O)CNC(=O)[C@H](CO)NC(=O)[C@H](C)NC(=O)[C@H](CCC(N)=O)NC(=O)[C@H](CC(C)C)NC(=O)[C@H](CC(C)C)NC(=O)[C@H](CCCNC(=N)N)NC(=O)[C@H](CCC(N)=O)NC(=O)[C@H](CC(C)C)NC(=O)[C@H](CCCNC(=N)N)NC(=O)CNC(=O)[C@H](CCC(N)=O)NC(=O)[C@H](CC(C)C)NC(=O)CN)C(=O)N[C@@H](CC(C)C)C(=O)N[C@H](C(=O)N[C@@H](CCSC)C(=O)O)[C@@H](C)O` (H-GLQGRLQRLLQASGNHPAGILTM-OH), the 50% effective concentration (EC50) on Orexin receptor type 2 is 4.4 µM; in assay [1] it was more than 1000 µM.

As for `CC[C@H](C)[C@H](NC(=O)CNC(=O)[C@H](C)NC(=O)[C@H](C)NC(=O)[C@@H]1CCCN1C(=O)[C@H](CC(N)=O)NC(=O)CNC(=O)[C@H](CO)NC(=O)[C@H](C)NC(=O)[C@H](CCC(N)=O)NC(=O)[C@H](CC(C)C)NC(=O)[C@H](CC(C)C)NC(=O)[C@H](CCCNC(=N)N)NC(=O)[C@H](CCC(N)=O)NC(=O)[C@H](CC(C)C)NC(=O)[C@H](CCCNC(=N)N)NC(=O)CNC(=O)[C@H](CCC(N)=O)NC(=O)[C@H](CC(C)C)NC(=O)CN)C(=O)N[C@@H](CC(C)C)C(=O)N[C@H](C(=O)N[C@@H](CCSC)C(=O)O)[C@@H](C)O` (H-GLQGRLQRLLQASGNPAAGILTM-OH), the EC50 at Orexin receptor type 2 is 0.84 µM; in assay [1], 1.89 µM.
